Reference: patent publication US20190262327A1, “COMBINATION OF A BACE INHIBITOR AND AN ANTIBODY OR ANTIGEN-BINDING FRAGMENT FOR THE TREATMENT OF A DISORDER ASSOCIATED WITH THE ACCUMULATION OF AMYLOID BETA” (ASTRAZENECA AB, priority 2016, published 2019)

System: sAPPβ release in SH-SY5Y cells
Assay: sAPPβ Release Assay
Type: cell-based
Details: Homo sapiens, 17 h
Method: Thaw cells and seed at a conc. of around 10000 cells/well in DMEM/F-12 with Glutamax, 10% FCS and 1% non-essential amino acids to a 384-well tissue culture treated plate, […] cell susp/well. The cell plates were then incubated for 7-24 h at 37° C., 5% CO2. The cell medium was removed, followed by addition of 30 μL compound diluted in DMEM/F-12 with Glutamax, 10% FCS, 1% non-essential amino acids and 1% PeSt to a final conc. of 1% DMSO. […] Meso Scale Discovery (MSD) plates were used for the detection of sAPPβ release. MSD sAPPβ plates were blocked in 1% BSA in Tris wash buffer (40 μL/well) for 1 h on shake at r.t. and washed 1 time in Tris wash buffer (40 μL/well). 20 μL of medium was transferred to the pre-blocked and washed MSD sAPPβ microplates, and the cell plates were further used in an ATP assay to measure cytotoxicity. The MSD plates were incubated with shaking at r.t. for 2 h and the media discarded. 10 μL detection antibody was added (1 nM) per well followed by incubation with shaking at r.t. for 2 h and then discarded. 40 μL Read Buffer was added per well and the plates were read in a SECTOR Imager.

- IC50: 0.1 nM
Compound: CC#Cc1cncc(-c2ccc3c(c2)[C@@]2(N=C(C)C(N)=N2)[C@]2(CC[C@H](OC)CC2)C3)c1 [(1r,1′R,4R)-4-methoxy-5″-methyl-6′-[5-(prop-1-yn-1-yl)pyridin-3-yl]-3′H-dispiro[cyclohexane-1,2′-indene-1′2″-imidazol]-4″-amine]
